Reference: ChEMBL document CHEMBL5579899, “Discovery and In Vivo Exploration of 1,3,4-Oxadiazole and α-Fluoroacrylate Containing IL-17 Inhibitors” (J Med Chem, 2024)
Converted amounts (≈) assume the structure as drawn.

Key:
[1] = Inhibition of IL-6 production in IL-17/TNF-alpha stimulated human NHDF cells incubated for 24 hrs by ELISA; assay type: functional, cell-based; details: 24 h
[2] = Metabolic stability in rat liver microsomes assessed as intrinsic clearance; assay type: ADME, Microsome; details: read-out: CLH
[3] = AUC in Sprague-Dawley rat at 3 mg/kg,po measured upto 24 hrs by LC-MS/MS analysis; assay type: ADME, organism-based; details: in vivo; for AUC at 24 h: Sprague-Dawley
[4] = Plasma clearance in Sprague-Dawley rat at 1 mg/kg,iv measured upto 24 hrs by LC-MS/MS analysis; assay type: ADME, organism-based
[5] = Equilibrium solubility of compound […] at pH 6.8 by high-throughput analysis; assay type: physicochemical
[6] = Lipophilicity, logD of compound at pH 7.4; assay type: physicochemical; details: buffer
[7] = Oral bioavailability in Sprague-Dawley rat at 3 mg/kg measured upto 24 hrs by LC-MS/MS analysis; assay type: ADME, organism-based; details: in vivo; for bioavailability: Sprague-Dawley
[8] = Apparent permeability coefficient of the compound across apical to basolateral side in dog MDCK cells by high-throughput analysis; assay type: ADME, cell-based, Canis lupus familiaris
[9] = Inhibition of biotinylated human IL-17A/AF647-labeled human IL-17RA protein-protein interaction preincubated for 30 mins with compound followed by addition of AF647-labeled human IL-17RA incubated for 90 min by TR-FRET assay
[10] = Metabolic stability in human liver microsomes assessed as intrinsic clearance; assay type: ADME, Microsome; details: read-out: CLH
[11] = Hepatotoxicity in dog assessed as increase in serum liver enzyme at 50 mg/kg administration measured after 3 days; assay type: toxicity, organism-based, Canis lupus familiaris; details: in vivo, 72 h, time 3 day
Rattus norvegicus = test: Antiarthritic activity in antigen-induced arthritis Lewis rat model assessed as reduction in knee swelling at 10 mg/kg,po bid administrated for 4 days; assay type: functional; design: scale not given: the % may be the effect or the level left; details: time 4 day

IC50 [1] [nM] | microsomal CLint [2] [µL/min/mg] | AUC at 24 h [3] [µM·h] | clearance [4] [mL/min/kg] | solubility [5] [µM] | logD [6] | bioavailability [7] [%] | Papp A→B [8] [×10⁻⁶ cm/s] | IC50 [9] [nM] | microsomal CLint [10] [µL/min/mg] | AUC ([3]; po, 3 mg/kg, 24 h) [µM·h] | F ([7]; po, 3 mg/kg, 24 h) [%] | SMILES | Activity [11] | Activity (Rattus norvegicus) [%]
15 | 17 | 0.026 | 86 | > 750 | 2.7 | 2.5 | 1.7 | 53 | < 25 |  |  | COC[C@H](c1cnn2cc([C@@H](Nc3nnc(C4CC4)o3)C3CCC(F)(F)CC3)nc2c1)N1C[C@@H](C(F)(F)F)NC1=O |  | 
4 | 20 | 5.43 | 24 | 380 (≈ 223 µg/mL) | 3.1 | 119 | 11 | 10 | 32 |  |  | COC[C@H](c1cnn2cc([C@@H](NC(=O)c3nonc3C)C3CCC(F)(F)CC3)nc2c1)N1C[C@@H](C(F)(F)F)NC1=O [LY-3509754] |  | 
4 | 64 |  |  | 560 (≈ 340 µg/mL) | 2.8 |  | 12 | 16 | 164 | 0.013 | 23 | COC[C@H](c1cnn2cc([C@@H](NC(=O)/C(F)=C\C3(F)CC3)C3CCC(F)(F)CC3)nc2c1)N1C[C@@H](C(F)(F)F)NC1=O |  | 
6 | 37 | 0.569 | 56 | 45 (≈ 27.2 µg/mL) | 3.9 | 41 | 10 | 21 | 66 |  |  | CC(F)(F)c1nnc(N[C@H](c2cn3ncc([C@@H](C4CC4)N4C[C@@H](C(F)(F)F)NC4=O)cc3n2)C2CCC(F)(F)CC2)o1 | Toxic | 68
